Calls of active or inactive are those of the source. The rule behind the calls is not given here.
System: Mycobacterium tuberculosis
Assay: Binding affinity to BTFA labelled recombinant Mycobacterium tuberculosis CYP121A1 C171S mutant assessed as change in chemical shift perturbation incubated for 15 mins by 19F NMR spectroscopy

Structure (SMILES)	Activity
CC(C)Oc1ccc(-c2nn(-c3ccc(F)cc3)cc2Cn2ccnc2)cc1	Active
COc1ccc(-c2nn(-c3ccc(F)cc3)cc2Cn2ccnc2)cc1	Active
COc1ccc(-c2nn(-c3ccc(Cl)cc3)cc2Cn2cncn2)cc1	Active
CCOc1ccc(-c2nn(-c3ccc(Cl)cc3)cc2Cn2cncn2)cc1	Active

— ChEMBL document CHEMBL5104207, “Synthesis, biological evaluation and computational studies of pyrazole derivatives as Mycobacterium tuberculosis CYP121A1 inhibitors” (RSC Med Chem, 2022)
